Numbers after ± are expanded uncertainties. Values belong to the compound of their own block, whether it stands above or below them.
Experiments:
[1] = Liquid; for mass density: 303.15 K, 91.2 kPa, Vibrating tube method; for vapor or sublimation pressure: Ebulliometric method (Recirculating still)
[2] = wn = mass fraction of the nth substance listed; conditions: 303.15 K, 91.2 kPa, Liquid, Vibrating tube method

SMILES: CCO [ethanol]
mass density [1]: 781 ± 2 kg/m3

SMILES: CCO [ethanol] + OCC(O)CO
mass density ([2]; w2 = 0): 781 ± 2 kg/m3

SMILES: CCO [ethanol] + [Cl-].[Na+]
mass density ([2]; w2 = 0): 781 ± 2 kg/m3

SMILES: OCC(O)CO [glycerol]
mass density [1]: 1255 ± 3 kg/m3

SMILES: OCC(O)CO [glycerol] + CCO
mass density ([2]; w1 = 0.1529): 835 ± 2 kg/m3
mass density ([2]; w1 = 0.2901): 888 ± 2 kg/m3
mass density ([2]; w1 = 0.4124): 939 ± 2 kg/m3
mass density ([2]; w1 = 0.5159): 985 ± 2 kg/m3
mass density ([2]; w1 = 0.6211): 1036 ± 2 kg/m3
mass density ([2]; w1 = 0.7096): 1084 ± 2 kg/m3
mass density ([2]; w1 = 0.7971): 1136 ± 2 kg/m3
mass density ([2]; w1 = 0.869): 1174 ± 3 kg/m3
mass density ([2]; w1 = 0.9357): 1215 ± 3 kg/m3
mass density ([2]; w1 = 1): 1255 ± 3 kg/m3

SMILES: OCC(O)CO [glycerol] + O
mass density ([2]; w1 = 0.1159): 1022 ± 2 kg/m3
mass density ([2]; w1 = 0.2056): 1044 ± 2 kg/m3
mass density ([2]; w1 = 0.3521): 1080 ± 2 kg/m3
mass density ([2]; w1 = 0.4646): 1108 ± 2 kg/m3
mass density ([2]; w1 = 0.5524): 1133 ± 2 kg/m3
mass density ([2]; w1 = 1): 1255 ± 3 kg/m3

SMILES: [Cl-].[K+] [potassium chloride] + O
mass density ([2]; w1 = 0.0344): 1017 ± 2 kg/m3
mass density ([2]; w1 = 0.053): 1029 ± 2 kg/m3
mass density ([2]; w1 = 0.067): 1038 ± 2 kg/m3
mass density ([2]; w1 = 0.0975): 1058 ± 2 kg/m3
mass density ([2]; w1 = 0.1259): 1077 ± 2 kg/m3
mass density ([2]; w1 = 0.1526): 1095 ± 2 kg/m3
mass density ([2]; w1 = 0.1779): 1113 ± 2 kg/m3
mass density ([2]; w1 = 0.2009): 1129 ± 2 kg/m3
mass density ([2]; w1 = 0.2117): 1137 ± 3 kg/m3
mass density ([2]; w1 = 0.2156): 1140 ± 2 kg/m3
mass density ([2]; w1 = 0.2448): 1161 ± 3 kg/m3
mass density ([2]; w1 = 0.2645): 1176 ± 3 kg/m3

SMILES: [Cl-].[Na+] [sodium chloride] + CCO
mass density ([2]; w1 = 0.00041): 788 ± 2 kg/m3

SMILES: [Cl-].[Na+] [sodium chloride] + O
mass density ([2]; w1 = 0.0318): 1018 ± 2 kg/m3
mass density ([2]; w1 = 0.0654): 1042 ± 2 kg/m3
mass density ([2]; w1 = 0.067): 1043 ± 2 kg/m3
mass density ([2]; w1 = 0.0949): 1063 ± 2 kg/m3
mass density ([2]; w1 = 0.0974): 1065 ± 2 kg/m3
mass density ([2]; w1 = 0.1232): 1084 ± 2 kg/m3
mass density ([2]; w1 = 0.1259): 1086 ± 2 kg/m3
mass density ([2]; w1 = 0.1578): 1110 ± 2 kg/m3
mass density ([2]; w1 = 0.1772): 1125 ± 2 kg/m3
mass density ([2]; w1 = 0.2013): 1144 ± 3 kg/m3
mass density ([2]; w1 = 0.225): 1163 ± 3 kg/m3
mass density ([2]; w1 = 0.244): 1178 ± 3 kg/m3
mass density ([2]; w1 = 0.2672): 1195 ± 3 kg/m3

Continued, values first:

mass density [1]: 996 ± 2 kg/m3
vapor or sublimation pressure ([1]; 327.65 K): 15.32 ± 0.9 kPa
vapor or sublimation pressure ([1]; 337.15 K): 23.61 ± 0.97 kPa
vapor or sublimation pressure ([1]; 341.35 K): 28.46 ± 1.4 kPa
vapor or sublimation pressure ([1]; 344.45 K): 33.81 ± 1.5 kPa
vapor or sublimation pressure ([1]; 348.05 K): 38.36 ± 1.5 kPa
vapor or sublimation pressure ([1]; 351.55 K): 44.42 ± 1.9 kPa
vapor or sublimation pressure ([1]; 355.75 K): 52.9 ± 1.9 kPa
vapor or sublimation pressure ([1]; 358.05 K): 56.84 ± 2.4 kPa
vapor or sublimation pressure ([1]; 361.85 K): 67.25 ± 2.7 kPa
vapor or sublimation pressure ([1]; 365.65 K): 77.55 ± 3 kPa
vapor or sublimation pressure ([1]; 370.05 K): 91.59 ± 3.2 kPa
SMILES: O [water]

mass density ([2]; w2 = 0): 996 ± 2 kg/m3
SMILES: O [water] + OCC(O)CO

mass density ([2]; w2 = 0): 996 ± 2 kg/m3
SMILES: O [water] + [Cl-].[K+]

mass density ([2]; w2 = 0): 996 ± 2 kg/m3
SMILES: O [water] + [Cl-].[Na+]

Reference: the NIST ThermoML archive (doi:10.1016/j.jct.2016.02.026)
